Series [1] deals with RAF proto-oncogene serine/threonine-protein kinase (Homo sapiens, UniProt P04049). The experiment in a line: Inhibition of C-RAF kinase.
Series [2] can be described thus: Metabolic stability in human liver microsome after 30 mins. The settings on record: liver microsomes, read-out: Stability. The format is ADME. A general note: Liver microsomes are a subcellular fraction often used to study metabolism.
The target of series [3] is Serine/threonine-protein kinase B-raf (Homo sapiens, UniProt P15056, V600E).
Chain of Serine/threonine-protein kinase B-raf (Homo sapiens, UniProt P15056, V600E) (P15056 2-766 V600E limits assumed): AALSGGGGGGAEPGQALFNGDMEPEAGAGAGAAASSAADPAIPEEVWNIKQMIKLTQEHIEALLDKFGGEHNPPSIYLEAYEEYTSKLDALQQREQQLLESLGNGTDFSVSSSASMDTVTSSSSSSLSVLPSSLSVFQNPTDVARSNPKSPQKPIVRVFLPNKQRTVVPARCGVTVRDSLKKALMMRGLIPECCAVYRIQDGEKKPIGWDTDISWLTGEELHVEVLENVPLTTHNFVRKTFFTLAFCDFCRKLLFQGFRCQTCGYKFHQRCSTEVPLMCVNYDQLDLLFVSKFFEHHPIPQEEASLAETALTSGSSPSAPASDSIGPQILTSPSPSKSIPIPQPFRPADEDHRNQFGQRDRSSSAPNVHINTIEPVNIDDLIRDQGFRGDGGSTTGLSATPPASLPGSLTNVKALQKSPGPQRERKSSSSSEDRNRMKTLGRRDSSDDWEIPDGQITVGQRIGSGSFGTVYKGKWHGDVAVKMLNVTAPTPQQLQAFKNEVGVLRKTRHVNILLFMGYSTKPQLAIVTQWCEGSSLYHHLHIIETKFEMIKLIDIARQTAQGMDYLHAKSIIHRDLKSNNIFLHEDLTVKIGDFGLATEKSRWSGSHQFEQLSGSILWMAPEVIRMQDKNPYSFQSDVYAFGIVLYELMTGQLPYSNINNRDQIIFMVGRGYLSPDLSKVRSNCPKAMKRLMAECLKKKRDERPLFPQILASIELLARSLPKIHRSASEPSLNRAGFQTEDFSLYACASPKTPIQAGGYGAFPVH
Description: Inhibition of B-RAF V600E mutant
Series [4] addresses Serine/threonine-protein kinase B-raf (Homo sapiens, UniProt P15056).
Description: Inhibition of B-RAF kinase
Series [5] can be described thus: Aqueous solubility in NaH2PO4 at pH 7.4 after 24 hrs by HPLC. The format is physicochemical. The settings on record: for Activity: buffer, pH 7.4, 24 h; for solubility at 24 h: NaH2PO4 buffer, pH 7.4.
Series [6] is described as follows: (§1) Metabolic stability in rat liver microsome after 30 mins. The format is ADME, microsomes. The settings on record: liver microsomes, read-out: Stability.
Series [7] can be described thus: Inhibition of ERK phosphorylation.
In series [8] the test system is Liver microsomes. Described as §1. The format is ADME. The settings on record: microsomes, 0.5 h.

≈ marks a conversion by molar mass, not a printed value. Calls of active or inactive are those of the source. The rule behind the calls is not given here.

Chain of RAF proto-oncogene serine/threonine-protein kinase (P04049 whole entry): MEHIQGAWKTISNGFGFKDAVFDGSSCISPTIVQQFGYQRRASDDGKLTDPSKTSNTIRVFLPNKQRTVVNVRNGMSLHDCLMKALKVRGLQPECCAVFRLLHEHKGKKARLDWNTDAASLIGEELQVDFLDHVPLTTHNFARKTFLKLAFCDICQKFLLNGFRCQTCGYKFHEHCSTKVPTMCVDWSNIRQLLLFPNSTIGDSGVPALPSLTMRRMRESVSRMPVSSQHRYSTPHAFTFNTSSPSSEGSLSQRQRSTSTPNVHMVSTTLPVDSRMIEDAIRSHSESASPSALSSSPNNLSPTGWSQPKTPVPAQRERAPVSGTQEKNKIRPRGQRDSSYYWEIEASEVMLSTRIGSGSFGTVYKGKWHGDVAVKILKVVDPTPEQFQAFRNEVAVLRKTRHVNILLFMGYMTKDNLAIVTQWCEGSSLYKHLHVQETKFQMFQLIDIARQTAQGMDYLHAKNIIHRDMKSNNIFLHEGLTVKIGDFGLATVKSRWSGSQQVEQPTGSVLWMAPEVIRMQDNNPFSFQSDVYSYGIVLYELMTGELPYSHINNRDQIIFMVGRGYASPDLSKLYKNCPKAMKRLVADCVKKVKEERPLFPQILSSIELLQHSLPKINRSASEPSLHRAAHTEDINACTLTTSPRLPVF
Chain of Serine/threonine-protein kinase B-raf (Homo sapiens, UniProt P15056) (P15056 whole entry): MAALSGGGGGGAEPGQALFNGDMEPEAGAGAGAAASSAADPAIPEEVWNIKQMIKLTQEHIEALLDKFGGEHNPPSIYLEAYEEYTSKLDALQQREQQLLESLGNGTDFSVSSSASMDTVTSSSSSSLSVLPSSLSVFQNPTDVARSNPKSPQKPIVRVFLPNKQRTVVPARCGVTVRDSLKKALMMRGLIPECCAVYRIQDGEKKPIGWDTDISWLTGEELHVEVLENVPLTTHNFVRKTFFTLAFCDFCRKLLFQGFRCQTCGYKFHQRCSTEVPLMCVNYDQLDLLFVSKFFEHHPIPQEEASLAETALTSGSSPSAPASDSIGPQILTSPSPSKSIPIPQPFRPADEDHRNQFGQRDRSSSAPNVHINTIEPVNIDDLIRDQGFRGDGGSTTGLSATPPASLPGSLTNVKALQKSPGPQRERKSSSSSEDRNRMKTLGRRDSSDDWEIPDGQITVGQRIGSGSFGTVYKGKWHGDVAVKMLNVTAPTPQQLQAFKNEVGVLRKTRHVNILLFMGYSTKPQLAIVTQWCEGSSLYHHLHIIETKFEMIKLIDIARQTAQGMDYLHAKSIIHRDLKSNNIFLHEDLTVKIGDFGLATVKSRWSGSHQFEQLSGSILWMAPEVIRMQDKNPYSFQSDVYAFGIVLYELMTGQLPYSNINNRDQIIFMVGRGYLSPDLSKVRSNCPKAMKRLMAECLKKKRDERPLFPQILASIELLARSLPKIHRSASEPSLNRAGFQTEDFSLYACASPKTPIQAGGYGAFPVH

By IC50 is commonly meant the concentration at which inhibition is half-maximal. The low end stands for greater potency, the high end for weaker potency. Turning to `NC(=O)c1cccc(Nc2nccc(-c3nc(C4CC4)[nH]c3-c3cccc(NS(=O)(=O)Cc4ccc(Cl)c(Cl)c4)c3)n2)c1`, the IC50 amounted to 49 nM in series [1], 274 nM in series [3] and 887 nM in series [4]. Further, the remaining at 0.5 h was determined as 76% in series [2] and 44% in series [6]. Besides, in series [5], the Activity result is given as “Not Active”.

For `O=C1NCCN1CCNc1nccc(-c2[nH]c(C3CC3)nc2-c2cccc(NS(=O)(=O)Cc3ccc(Cl)c(Cl)c3)c2)n1`, the result in series [7] was inactive.

As usually defined, the solubility is the dissolved amount per volume that the medium holds. Low values mean a poorly soluble substance, high ones a readily soluble substance. For `NC(=O)c1cccc(Nc2nccc(-c3[nH]c(C4CC4)nc3-c3cccc(NC(=O)Cc4ccc(Cl)cc4)c3)n2)c1`, the IC50 in series [1] is 0.5 nM; in series [3] it was 3 nM; in series [4], 4 nM; in series [7], 2400 nM. The remaining at 0.5 h is 53% in series [2] and 58% in series [6]. Besides, the solubility at 24 h in series [5] is 0.5 µM (≈ 0.282 µg/mL).

With `NC(=O)c1cccc(Nc2nccc(-c3[nH]c(C(F)(F)F)nc3-c3cccc(NC(=O)Cc4ccc(Cl)cc4)c3)n2)c1`, the IC50 in series [1] stood at 17 nM; in series [3] it was 85 nM; in series [4], 108 nM; in series [7], 30000 nM. Besides, the remaining at 0.5 h in series [2] turned out to be 71%; in series [6], 47%. For the same compound, the solubility at 24 h in series [5] was determined as 0.35 µM (≈ 0.207 µg/mL).

`CC(C)(C)NC(=O)NCCNc1nccc(-c2[nH]c(C3CC3)nc2-c2ccccc2Cl)n1` came in with an IC50 in series [4] of 83 nM. That is a double-digit nanomolar value.

For the compound `NC(=O)c1cccc(Nc2nccc(-c3[nH]c(C4CC4)nc3-c3cccc(NS(=O)(=O)Cc4ccc(Cl)c(Cl)c4)c3)n2)c1`, the result in series [7] was inactive.

Compound `O=C1NCCN1CCNc1nccc(-c2nc(C3CC3)[nH]c2-c2cc(Cl)ccc2Cl)n1` had a half-inhibitory concentration (IC50) in series [4] of 10 nM. This lies in the double-digit nanomolar range.

Regarding `O=C(Cc1ccc(Cl)cc1)Nc1cccc(-c2nc(C(F)(F)F)[nH]c2-c2ccnc(NCCN3CCNC3=O)n2)c1`, the IC50 in series [1] worked out at 20 nM; in series [3], 40 nM; in series [4], 54 nM; in series [7], 30000 nM. Further, the remaining at 0.5 h was 73% in series [2] and 34% in series [6]. Moreover, the concentration in solution in series [5] (solubility at 24 h) came to 7.5 µM (≈ 4.39 µg/mL).

Regarding `O=C1NCCN1CCNc1nccc(-c2nc(C3CC3)[nH]c2-c2cccc(NS(=O)(=O)Cc3ccc(Cl)c(Cl)c3)c2)n1`, the figures for the IC50 in series [1], in series [3] and in series [4] were 41 nM, 141 nM and 343 nM, respectively. For the same compound, the results for the remaining at 0.5 h in series [2] and in series [6] were 85% and 52%, respectively. The Activity result in series [5] is “Not Active”.

For `CNc1nccc(-c2[nH]c(C3CC3)nc2-c2cccc(NS(=O)(=O)Cc3ccc(Cl)c(Cl)c3)c2)n1`, the IC50 in series [1] turned out to be 26 nM; in series [3], 138 nM; in series [4] it was 469 nM. Besides, the remaining at 0.5 h in series [2] turned out to be 60%; in series [6], 87%. Also, in series [7], the result was inactive. For the same compound, in series [5], the Activity entry is “Not Active”.

As to `CNc1nccc(-c2[nH]c(C3CC3)nc2-c2cccc(NC(=O)Nc3ccc(Cl)c(C(F)(F)F)c3)c2)n1`, the IC50 stood at 5 nM in series [1], 16 nM in series [3], 21 nM in series [4] and 1400 nM in series [7]. Moreover, the remaining at 0.5 h in series [2] turned out to be 80%; in series [6] it was 57%. For the same compound, the concentration in solution in series [5] (solubility at 24 h) came to 0.3 µM (≈ 0.158 µg/mL).

As to `CNC(=O)c1cc(Oc2ccc(NC(=O)Nc3ccc(Cl)c(C(F)(F)F)c3)cc2)ccn1` [SORAFENIB], the remaining at 0.5 h in series [2] came out at 80%. Further, the IC50 in series [7] was 8300 nM. Further, in series [5], the solubility at 24 h worked out at 6.3 µM (≈ 2.93 µg/mL). The Activity entry in series [8] was “Not Active”.

Take `O=C(Nc1cccc(-c2nc(C3CC3)[nH]c2-c2ccnc(NCCN3CCNC3=O)n2)c1)Nc1ccc(Cl)c(C(F)(F)F)c1`: the IC50 in series [1] came out at 14 nM; in series [3], 22 nM; in series [4] it was 66 nM; in series [7], 2300 nM. Further, the remaining at 0.5 h was 50% in series [2] and 44% in series [6]. In series [5], this compound yielded a solubility at 24 h of 6.2 µM (≈ 3.88 µg/mL).

Take `NC(=O)c1cccc(Nc2nccc(-c3[nH]c(C4CC4)nc3-c3cccc(NC(=O)Nc4ccc(Cl)c(C(F)(F)F)c4)c3)n2)c1`: the IC50 in series [1] was 31 nM; in series [3], 61 nM; in series [4], 35 nM; in series [7] it was 2100 nM. The solubility at 24 h in series [5] came to 0.4 µM (≈ 0.253 µg/mL).

Take `O=C(Cc1ccc(Cl)cc1)Nc1cccc(-c2nc(C3CC3)[nH]c2-c2ccnc(NCCN3CCNC3=O)n2)c1`: the IC50 in series [1] came out at 1 nM; in series [3] it was 2 nM; in series [4], 7 nM; in series [7], 3000 nM. Also, the remaining at 0.5 h in series [2] worked out at 38%; in series [6], 60%. In series [5], this compound had a solubility at 24 h of 35 µM (≈ 19.5 µg/mL).

Consider `CNc1nccc(-c2[nH]c(C3CC3)nc2-c2cccc(NC(=O)Cc3ccc(Cl)cc3)c2)n1`, for which the IC50 was determined as 1 nM in series [1], 3 nM in series [3], 9 nM in series [4] and 5100 nM in series [7]. In addition, in series [5], the concentration in solution (solubility at 24 h) came to 0.4 µM (≈ 0.184 µg/mL).

In the case of `CNc1nccc(-c2[nH]c(C(F)(F)F)nc2-c2cccc(NC(=O)Cc3ccc(Cl)cc3)c2)n1`, the IC50 was 2 nM in series [1], 18 nM in series [3], 30 nM in series [4] and 12600 nM in series [7]. The figures for the remaining at 0.5 h in series [2] and in series [6] were 74% and 81%, respectively. Further, the solubility at 24 h in series [5] was 0.48 µM (≈ 0.234 µg/mL).

These data come from ChEMBL document CHEMBL1145637, “Dual binding site inhibitors of B-RAF kinase” (Bioorg Med Chem Lett, 2008).
